How the values were obtained:
Assay type in all cases: functional
[1] = biological target: 5-hydroxytryptamine receptor 3A (Mus musculus, UniProt P23979, Y142F); assay: Agonist activity at mouse 5HT3A Y143F receptor mutant expressed in Xenopus oocyte by two-electrode voltage patch method
[2] = biological target: 5-hydroxytryptamine receptor 3A (Mus musculus, UniProt P23979, L183V); assay: Agonist activity at mouse 5HT3A L184V receptor mutant expressed in Xenopus oocyte by two-electrode voltage patch method
[3] = biological target: 5-hydroxytryptamine receptor 3A (Mus musculus, UniProt P23979, I189V); assay: Agonist activity at mouse 5HT3A I190V receptor mutant expressed in Xenopus oocyte by two-electrode voltage patch method
[4] = biological target: 5-hydroxytryptamine receptor 3A (Mus musculus, UniProt P23979, T180A); assay: Agonist activity at mouse 5HT3A T181A receptor mutant expressed in Xenopus oocyte by two-electrode voltage patch method
[5] = biological target: 5-hydroxytryptamine receptor 3A (Mus musculus, UniProt P23979, Y152A); assay: Agonist activity at mouse 5HT3A Y153A receptor mutant expressed in Xenopus oocyte by two-electrode voltage patch method
[6] = biological target: 5-hydroxytryptamine receptor 3A (Mus musculus, UniProt P23979, T185A); assay: Agonist activity at mouse 5HT3A T186A receptor mutant expressed in Xenopus oocyte by two-electrode voltage patch method
[7] = biological target: 5-hydroxytryptamine receptor 3A (Mus musculus, UniProt P23979, H184Y); assay: Agonist activity at mouse 5HT3A H185Y receptor mutant expressed in Xenopus oocyte by two-electrode voltage patch method
[8] = biological target: 5-hydroxytryptamine receptor 3A (Mus musculus, UniProt P23979, H184F); assay: Agonist activity at mouse 5HT3A H185F receptor mutant expressed in Xenopus oocyte by two-electrode voltage patch method
[9] = biological target: 5-hydroxytryptamine receptor 3A (Mus musculus, UniProt P23979, Q187A); assay: Agonist activity at mouse 5HT3A Q188A receptor mutant expressed in Xenopus oocyte by two-electrode voltage patch method
[10] = biological target: 5-hydroxytryptamine receptor 3A (Mus musculus, UniProt P23979, Y152F); assay: Agonist activity at mouse 5HT3A Y153F receptor mutant expressed in Xenopus oocyte by two-electrode voltage patch method
[11] = biological target: 5-hydroxytryptamine receptor 3A (Mus musculus, UniProt P23979, W182F); assay: Agonist activity at mouse 5HT3A W183F receptor mutant expressed in Xenopus oocyte by two-electrode voltage patch method
[12] = biological target: T1, 5-hydroxytryptamine receptor 3A (Mus musculus, UniProt P23979); assay: Agonist activity at wild type mouse 5HT3A receptor expressed in Xenopus oocyte by two-electrode voltage patch clamp method
T1 sequence (P23979 whole entry): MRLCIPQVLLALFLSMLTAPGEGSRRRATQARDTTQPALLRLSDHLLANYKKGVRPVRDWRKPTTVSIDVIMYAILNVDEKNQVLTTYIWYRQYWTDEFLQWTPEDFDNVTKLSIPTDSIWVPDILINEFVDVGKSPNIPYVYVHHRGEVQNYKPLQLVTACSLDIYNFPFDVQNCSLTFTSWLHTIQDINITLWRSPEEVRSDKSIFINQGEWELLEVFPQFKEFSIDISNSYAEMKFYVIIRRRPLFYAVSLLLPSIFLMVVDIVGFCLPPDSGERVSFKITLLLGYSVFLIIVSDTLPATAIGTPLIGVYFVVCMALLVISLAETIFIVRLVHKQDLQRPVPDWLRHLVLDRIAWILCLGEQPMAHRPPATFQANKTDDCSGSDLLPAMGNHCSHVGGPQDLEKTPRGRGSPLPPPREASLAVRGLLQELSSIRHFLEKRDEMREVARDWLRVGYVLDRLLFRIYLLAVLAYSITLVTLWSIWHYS

[13] = biological target: 5-hydroxytryptamine receptor 3A (Mus musculus, UniProt P23979, I186A); assay: Agonist activity at mouse 5HT3A I187A receptor mutant expressed in Xenopus oocyte by two-electrode voltage patch method
[14] = biological target: 5-hydroxytryptamine receptor 3A (Mus musculus, UniProt P23979, S181A); assay: Agonist activity at mouse 5HT3A S182A receptor mutant expressed in Xenopus oocyte by two-electrode voltage patch method
Sequence of 5-hydroxytryptamine receptor 3A (Mus musculus, UniProt P23979, S181A) (P23979 24-489 S182A limits assumed): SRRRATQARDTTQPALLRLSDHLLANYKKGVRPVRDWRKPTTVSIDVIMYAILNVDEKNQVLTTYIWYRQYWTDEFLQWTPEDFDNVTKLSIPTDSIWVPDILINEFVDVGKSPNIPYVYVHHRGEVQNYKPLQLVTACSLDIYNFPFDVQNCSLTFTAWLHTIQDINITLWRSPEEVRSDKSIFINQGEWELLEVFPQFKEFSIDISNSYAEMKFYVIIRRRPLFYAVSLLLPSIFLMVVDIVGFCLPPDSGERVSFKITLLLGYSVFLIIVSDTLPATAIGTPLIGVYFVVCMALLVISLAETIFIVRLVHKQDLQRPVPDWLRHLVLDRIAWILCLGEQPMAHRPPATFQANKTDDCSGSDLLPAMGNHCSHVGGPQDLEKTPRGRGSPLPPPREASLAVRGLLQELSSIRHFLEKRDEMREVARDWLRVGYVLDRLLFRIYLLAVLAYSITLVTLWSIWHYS

Sequence of 5-hydroxytryptamine receptor 3A (Mus musculus, UniProt P23979, H184Y) (P23979 24-489 H185Y limits assumed): as the sequence (P23979 24-489 S182A limits assumed) above, with A159S, H162Y counted along it
Sequence of 5-hydroxytryptamine receptor 3A (Mus musculus, UniProt P23979, Y152F) (P23979 24-489 Y153F limits assumed): as the sequence (P23979 24-489 S182A limits assumed) above, with Y130F, A159S counted along it
Sequence of 5-hydroxytryptamine receptor 3A (Mus musculus, UniProt P23979, W182F) (P23979 24-489 W183F limits assumed): as the sequence (P23979 24-489 S182A limits assumed) above, with A159S, W160F counted along it
Sequence of 5-hydroxytryptamine receptor 3A (Mus musculus, UniProt P23979, T180A) (P23979 24-489 T181A limits assumed): as the sequence (P23979 24-489 S182A limits assumed) above, with T158A, A159S counted along it
Sequence of 5-hydroxytryptamine receptor 3A (Mus musculus, UniProt P23979, Y142F) (P23979 24-489 Y143F limits assumed): as the sequence (P23979 24-489 S182A limits assumed) above, with Y120F, A159S counted along it
Sequence of 5-hydroxytryptamine receptor 3A (Mus musculus, UniProt P23979, I189V) (P23979 24-489 I190V limits assumed): as the sequence (P23979 24-489 S182A limits assumed) above, with A159S, I167V counted along it
Sequence of 5-hydroxytryptamine receptor 3A (Mus musculus, UniProt P23979, T185A) (P23979 24-489 T186A limits assumed): as the sequence (P23979 24-489 S182A limits assumed) above, with A159S, T163A counted along it
Sequence of 5-hydroxytryptamine receptor 3A (Mus musculus, UniProt P23979, Q187A) (P23979 24-489 Q188A limits assumed): as the sequence (P23979 24-489 S182A limits assumed) above, with A159S, Q165A counted along it
Sequence of 5-hydroxytryptamine receptor 3A (Mus musculus, UniProt P23979, L183V) (P23979 24-489 L184V limits assumed): as the sequence (P23979 24-489 S182A limits assumed) above, with A159S, L161V counted along it
Sequence of 5-hydroxytryptamine receptor 3A (Mus musculus, UniProt P23979, Y152A) (P23979 24-489 Y153A limits assumed): as the sequence (P23979 24-489 S182A limits assumed) above, with Y130A, A159S counted along it
Sequence of 5-hydroxytryptamine receptor 3A (Mus musculus, UniProt P23979, H184F) (P23979 24-489 H185F limits assumed): as the sequence (P23979 24-489 S182A limits assumed) above, with A159S, H162F counted along it
Sequence of 5-hydroxytryptamine receptor 3A (Mus musculus, UniProt P23979, I186A) (P23979 24-489 I209A limits assumed): as the sequence (P23979 24-489 S182A limits assumed) above, with A159S, I186A counted along it

EC50 [1]: 5.3 µM
EC50 [2]: 5.1 µM
EC50 [3]: 2 µM
EC50 [4]: 2.2 µM
EC50 [5]: 7.6 µM
EC50 [6]: 1.7 µM
EC50 [7]: 5.4 µM
EC50 [8]: 2.5 µM
EC50 [9]: 2.3 µM
EC50 [10]: 2.2 µM
EC50 [11]: 16 µM
EC50 [12]: 0.8 µM
EC50 [13]: 52 µM
EC50 [14]: 27 µM
SMILES: N=C(N)NC(=N)Nc1cccc(Cl)c1

From ChEMBL document CHEMBL1153515 (Bioorg Med Chem, 2009)
